Laboratory results published in patent publication US20250353830A1, “NOVEL COMPOUNDS” (Hoffmann-La Roche Inc., priority 2022, published 2025).

Legend:
[1] = biological target: T1, NLRP3 (Homo sapiens, UniProt Q96P20); assay: THP-1 cells pyroptosis assay (LPS priming, nigericin, resazurin read-out); assay type: cell-based; parameters: Seed THP-1 cells (25,000 cells/well) containing 1.0 μg/ml LPS; host or cells: THP-1 cells, LPS-primed, nigericin-stimulated; conditions: 1 μg/ml LPS, 3 hours compound, 5 μM nigericin 1 hr
Experimental: THP-1 cells (ATCC #TIB-202) were grown in RPMI containing L-glutamine (Gibco #11835) supplemented with 1 mM sodium pyruvate (Sigma #S8636) and penicillin (100 units/ml)/streptomycin (0.1 mg/ml) (Sigma #P4333) in 10% Fetal Bovine Serum (FBS) (Sigma #F0804). The cells were routinely passaged and grown to confluency (˜10^6 cells/ml). On the day of the experiment, THP-1 cells were harvested and resuspended into RPMI medium (without FBS). The cells were then counted and viability (>90%) checked by Trypan blue (Sigma #T8154). Appropriate dilutions were made to give a concentration of 625,000 cells/ml. To this diluted cell solution was added LPS (Sigma #L4524) to give a 1 μg/ml Final Assay Concentration (FAC). 40 μl of the final preparation was aliquoted into each well of a 96-well plate. The plate thus prepared was used for compound screening.
The following method step-by-step assay was followed for compound screening. • 1. Seed THP-1 cells (25,000 cells/well) containing 1.0 μg/ml LPS in 40 μl of RPMI medium (without FBS) in 96-well, black walled, clear bottom cell culture plates coated with poly-D-lysine (VWR #734-0317) • 2. Add 5 μl compound (8 points half-log dilution, with 10 μM top dose) or vehicle (DMSO 0.1% FAC) to the appropriate wells • 3. Incubate for 3 hours at 37° C., 5% CO2 • 4. Add 5 μl nigericin (Sigma #N7143) (FAC 5 μM) to all wells • 5. Incubate for 1 hr at 37° C., 5% CO2 • 6. At the end of the incubation period, spin plates at 300×g for 3 mins and remove supernatant • 7. Then add […] of resazurin (Sigma #R7017) (FAC 100 μM resazurin in RPMI medium without FBS) and incubate plates for a further 1-2 hours at 37° C. and 5% CO2 • 8. Plates were read in an Envision reader at Ex 560 nm and Em 590 nm • 9. IC50 data is fitted to a non-linear regression equation (log inhibitor vs response-variable slope 4-parameters)

[2] = biological target: T1, NLRP3; assay: Human whole blood IL-1β release assay (LPS, nigericin, AlphaLisa); assay type: cell-based; parameters: Plate out 80 μl of whole blood containing 1 μg/ml of LPS; from tissue; host or cells: human whole blood from healthy donors, LPS-primed, nigericin-stimulated; conditions: 1 μg/ml LPS, 3 hours compound, 10 μM nigericin 1 hr, IL-1β in supernatant
Experimental: For systemic delivery, the ability to inhibit NLRP3 when the compounds are present within the bloodstream is of great importance. For this reason, the NLRP3 inhibitory activity of a number of compounds in human whole blood was investigated in accordance with the following protocol.
Human whole blood in Li-heparin tubes was obtained from healthy donors from a volunteer donor panel. • 1. Plate out 80 μl of whole blood containing 1 μg/ml of LPS in 96-well, clear bottom cell culture plate (Corning #3585) • 2. Add 10 μl compound (8 points half-log dilution with 10 μM top dose) or vehicle (DMSO 0.1% FAC) to the appropriate wells • 3. Incubate for 3 hours at 37° C., 5% CO2 • 4. Add 10 μl nigericin (Sigma #N7143) (10 μM FAC) to all wells • 5. Incubate for 1 hr at 37° C., 5% CO2 • 6. At the end of the incubation period, spin plates at 300×g for 5 mins to pellet cells and remove 20 μl of supernatant and add to 96-well v-bottom plates for IL-1β analysis (note: these plates containing the supernatants can be stored at −80° C. to be analysed at a later date) • 7. IL-1β was measured according to the manufacturer protocol (Perkin Elmer-AlphaLisa IL-1 Kit AL220F-5000) • 8. IC50 data is fitted to a non-linear regression equation (log inhibitor vs response-variable slope 4-parameters)

T1 sequence (Q96P20 whole entry): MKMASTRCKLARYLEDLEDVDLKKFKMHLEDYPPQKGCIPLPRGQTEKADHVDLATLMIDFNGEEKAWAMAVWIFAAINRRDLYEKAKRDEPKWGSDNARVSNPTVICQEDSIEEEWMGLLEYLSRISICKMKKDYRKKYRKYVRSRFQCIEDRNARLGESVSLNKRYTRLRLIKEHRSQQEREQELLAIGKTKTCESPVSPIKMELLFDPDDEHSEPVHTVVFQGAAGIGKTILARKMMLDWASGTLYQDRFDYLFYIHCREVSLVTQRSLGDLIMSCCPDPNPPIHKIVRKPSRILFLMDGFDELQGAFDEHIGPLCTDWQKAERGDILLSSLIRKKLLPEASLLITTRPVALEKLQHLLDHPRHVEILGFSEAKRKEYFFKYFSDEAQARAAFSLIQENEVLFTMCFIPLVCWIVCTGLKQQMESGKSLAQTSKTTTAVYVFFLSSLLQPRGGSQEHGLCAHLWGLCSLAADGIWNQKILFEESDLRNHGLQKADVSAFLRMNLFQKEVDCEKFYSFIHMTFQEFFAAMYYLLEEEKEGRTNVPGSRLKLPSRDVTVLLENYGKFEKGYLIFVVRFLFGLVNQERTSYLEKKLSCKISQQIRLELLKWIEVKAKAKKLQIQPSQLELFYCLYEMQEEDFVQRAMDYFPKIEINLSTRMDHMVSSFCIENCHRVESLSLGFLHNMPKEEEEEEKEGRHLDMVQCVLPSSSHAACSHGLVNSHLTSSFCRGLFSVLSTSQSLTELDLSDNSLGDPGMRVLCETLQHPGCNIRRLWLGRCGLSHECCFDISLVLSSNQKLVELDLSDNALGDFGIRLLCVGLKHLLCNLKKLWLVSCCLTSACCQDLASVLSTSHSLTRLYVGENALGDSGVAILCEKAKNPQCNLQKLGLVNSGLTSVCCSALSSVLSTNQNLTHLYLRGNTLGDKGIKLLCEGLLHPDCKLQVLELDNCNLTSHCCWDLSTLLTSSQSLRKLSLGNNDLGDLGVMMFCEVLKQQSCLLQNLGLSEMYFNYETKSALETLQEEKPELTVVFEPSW

Structure (SMILES) | IC50 [1] | IC50 [2]
Cc1cc(N2CC[C@@H]3CCN(C)C[C@@H]32)nnc1-c1ccc2c(F)c[nH]c2c1 (single isomer, unassigned) [Example 18A] | 2 nM | 31 nM
CCN1CCC[C@@H](Nc2cc(C)c(-c3cc4[nH]ccc4cc3F)nn2)C1 [Example 3, N-[(3R)-1-ethyl-3-piperidyl]-6-(5-fluoro-1H-indol-6-yl)-5-methyl-pyridazin-3-amine] | 9.2 nM | 48.6 nM
CCN1CCC[C@@H](Nc2cc(C)c(-c3ccc4c(C#N)c[nH]c4c3)nn2)C1 [Example 7, 6-[6-[[(3R)-1-Ethyl-3-piperidyl]amino]-4-methyl-pyridazin-3-yl]-1H-indole-3-carbonitrile] | 133 nM | –
CCN1CCC[C@@H](Nc2cc(C)c(-c3ccc4cc[nH]c4c3F)nn2)C1 [Example 10, N-[(3R)-1-ethyl-3-piperidyl]-6-(7-fluoro-1H-indol-6-yl)-5-methyl-pyridazin-3-amine] | 22.6 nM | 45.1 nM
CCc1cc(N[C@@H]2CCCN(CC)C2)nnc1-c1ccc2c(F)c[nH]c2c1 [Example 12, 5-Ethyl-N-[(3R)-1-ethyl-3-piperidyl]-6-(3-fluoro-1H-indol-6-yl)pyridazin-3-amine] | 18.3 nM | 25.4 nM
CCN1CCC[C@@H](Nc2nnc(-c3ccc4cc[nH]c4c3)c(C)n2)C1 [Example 13, N-[(3R)-1-Ethyl-3-piperidyl]-6-(1H-indol-6-yl)-5-methyl-1,2,4-triazin-3-amine] | 47.3 nM | 28.6 nM
CCN1CCC[C@@H](Nc2nnc(-c3ccc4cc[nH]c4c3)c3c2cnn3C)C1 [Example 15, N-[(3R)-1-Ethyl-3-piperidyl]-7-(1H-indol-6-yl)-1-methyl-pyrazolo[3,4-d]pyridazin-4-amine] | 27 nM | 52 nM

Next, values leading:

IC50 [1] | IC50 [2] | Structure (SMILES)
5.1 nM | 17.1 nM | CCN1CCC[C@@H](Nc2cc(C)c(-c3ccc4cc[nH]c4c3)nn2)C1 [Example 1, N-[(3R)-1-Ethyl-3-piperidyl]-6-(1H-indol-6-yl)-5-methyl-pyridazin-3-amine]
2.7 nM | 9.5 nM | CCN1CCC[C@@H](Nc2cc(C)c(-c3ccc4c(F)c[nH]c4c3)nn2)C1 [Example 2, N-[(3R)-1-Ethyl-3-piperidyl]-6-(3-fluoro-1H-indol-6-yl)-5-methyl-pyridazin-3-amine]
43.7 nM | 234 nM | CCN1CCC[C@@H](Nc2cc(C)c(-c3ccc4c(C)c[nH]c4c3)nn2)C1 [Example 4, N-[(3R)-1-Ethyl-3-piperidyl]-5-methyl-6-(3-methyl-1H-indol-6-yl)pyridazin-3-amine]
12.3 nM | 56.2 nM | CCN1CCC[C@@H](Nc2cc(C)c(-c3ccc4cc(C)[nH]c4c3)nn2)C1 [Example 6, N-[(3R)-1-Ethyl-3-piperidyl]-5-methyl-6-(2-methyl-1H-indol-6-yl)pyridazin-3-amine]
123 nM | – | CCN1CCC[C@@H](Nc2cc(C)c(-c3ccc4cc(C#N)[nH]c4c3)nn2)C1 [Example 8, 6-[6-[[(3R)-1-Ethyl-3-piperidyl]amino]-4-methyl-pyridazin-3-yl]-1H-indole-2-carbonitrile]
4.9 nM | 26.5 nM | Cc1cc(N[C@@H]2CCCN(C)C2)nnc1-c1ccc2c(F)c[nH]c2c1 [Example 9, 6-(3-Fluoro-1H-indol-6-yl)-5-methyl-N-[(3R)-1-methyl-3-piperidyl]pyridazin-3-amine]
5.1 nM | 44.1 nM | CCN1CCC[C@@H](Nc2cc(C(F)(F)F)c(-c3ccc4c(F)c[nH]c4c3)nn2)C1 [Example 11, N-[(3R)-1-Ethyl-3-piperidyl]-6-(3-fluoro-1H-indol-6-yl)-5-(trifluoromethyl)pyridazin-3-amine]
55.9 nM | 43.2 nM | CCN1CCC[C@@H](Nc2nnc(-c3ccc4c(F)c[nH]c4c3)c(C)n2)C1 [Example 14, N-[(3R)-1-Ethyl-3-piperidyl]-6-(3-fluoro-1H-indol-6-yl)-5-methyl-1,2,4-triazin-3-amine]
21 nM | 113 nM | CCN1CCC[C@@H](Nc2ccc(-c3cc4[nH]ccc4cc3C)nn2)C1 [Example 16, N-[(3R)-1-Ethyl-3-piperidyl]-6-(5-methyl-1H-indol-6-yl)pyridazin-3-amine]
493 nM | – | Cc1cc(N[C@H]2C[C@@](C)(O)C2)nnc1-c1ccc2c(F)c[nH]c2c1 [Example 17, 3-[[6-(3-Fluoro-1H-indol-6-yl)-5-methyl-pyridazin-3-yl]amino]-1-methyl-cyclobutanol]
37 nM | 179 nM | Cc1cc(N2CC[C@H]3CCN(C)C[C@H]32)nnc1-c1ccc2c(F)c[nH]c2c1 [Example 18B, (3aR,7aS)-1-[6-(3-fluoro-1H-indol-6-yl)-5-methyl-pyridazin-3-yl]-6-methyl-3,3a,4,5,7,7a-hexahydro-2H-pyrrolo[2,3-c]pyridine]
